From patent US9302988B2, “Fluoromethyl-substituted pyrrole carboxamides” (GRÜNENTHAL GMBH, priority 2012, dated 2016)

biological target: T1, Human CaV2.2 channels (Homo sapiens, UniProt Q00975); experiment: Fluorescent assay for CaV2.2 channels using potassium depolarization to induce channel opening (FLIPR, Fluo-4); format: cell-based; settings: 3 μM test compound, 30 mM KCl, HEK293 cells stably expressing human CaV2.2; read-out: %-Inhib (CaV2.2) @3 μM @30 mM KCl
T1 construct: expressed in transfected cells
Method in brief: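 Channel block was read as the baseline-normalized peak Ca²⁺ signal (Fluo-4, 480/535 nm) after a high-KCl depolarizing addition (210 mM KCl buffer). Beforehand, compound sat 15 min at 25 °C on HEK293 cells carrying human CaV2.2, α2δ/β subunits and Kir2.3, in pH 7.4 buffer with 30 mM KCl.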

T1 sequence (Q00975 whole entry): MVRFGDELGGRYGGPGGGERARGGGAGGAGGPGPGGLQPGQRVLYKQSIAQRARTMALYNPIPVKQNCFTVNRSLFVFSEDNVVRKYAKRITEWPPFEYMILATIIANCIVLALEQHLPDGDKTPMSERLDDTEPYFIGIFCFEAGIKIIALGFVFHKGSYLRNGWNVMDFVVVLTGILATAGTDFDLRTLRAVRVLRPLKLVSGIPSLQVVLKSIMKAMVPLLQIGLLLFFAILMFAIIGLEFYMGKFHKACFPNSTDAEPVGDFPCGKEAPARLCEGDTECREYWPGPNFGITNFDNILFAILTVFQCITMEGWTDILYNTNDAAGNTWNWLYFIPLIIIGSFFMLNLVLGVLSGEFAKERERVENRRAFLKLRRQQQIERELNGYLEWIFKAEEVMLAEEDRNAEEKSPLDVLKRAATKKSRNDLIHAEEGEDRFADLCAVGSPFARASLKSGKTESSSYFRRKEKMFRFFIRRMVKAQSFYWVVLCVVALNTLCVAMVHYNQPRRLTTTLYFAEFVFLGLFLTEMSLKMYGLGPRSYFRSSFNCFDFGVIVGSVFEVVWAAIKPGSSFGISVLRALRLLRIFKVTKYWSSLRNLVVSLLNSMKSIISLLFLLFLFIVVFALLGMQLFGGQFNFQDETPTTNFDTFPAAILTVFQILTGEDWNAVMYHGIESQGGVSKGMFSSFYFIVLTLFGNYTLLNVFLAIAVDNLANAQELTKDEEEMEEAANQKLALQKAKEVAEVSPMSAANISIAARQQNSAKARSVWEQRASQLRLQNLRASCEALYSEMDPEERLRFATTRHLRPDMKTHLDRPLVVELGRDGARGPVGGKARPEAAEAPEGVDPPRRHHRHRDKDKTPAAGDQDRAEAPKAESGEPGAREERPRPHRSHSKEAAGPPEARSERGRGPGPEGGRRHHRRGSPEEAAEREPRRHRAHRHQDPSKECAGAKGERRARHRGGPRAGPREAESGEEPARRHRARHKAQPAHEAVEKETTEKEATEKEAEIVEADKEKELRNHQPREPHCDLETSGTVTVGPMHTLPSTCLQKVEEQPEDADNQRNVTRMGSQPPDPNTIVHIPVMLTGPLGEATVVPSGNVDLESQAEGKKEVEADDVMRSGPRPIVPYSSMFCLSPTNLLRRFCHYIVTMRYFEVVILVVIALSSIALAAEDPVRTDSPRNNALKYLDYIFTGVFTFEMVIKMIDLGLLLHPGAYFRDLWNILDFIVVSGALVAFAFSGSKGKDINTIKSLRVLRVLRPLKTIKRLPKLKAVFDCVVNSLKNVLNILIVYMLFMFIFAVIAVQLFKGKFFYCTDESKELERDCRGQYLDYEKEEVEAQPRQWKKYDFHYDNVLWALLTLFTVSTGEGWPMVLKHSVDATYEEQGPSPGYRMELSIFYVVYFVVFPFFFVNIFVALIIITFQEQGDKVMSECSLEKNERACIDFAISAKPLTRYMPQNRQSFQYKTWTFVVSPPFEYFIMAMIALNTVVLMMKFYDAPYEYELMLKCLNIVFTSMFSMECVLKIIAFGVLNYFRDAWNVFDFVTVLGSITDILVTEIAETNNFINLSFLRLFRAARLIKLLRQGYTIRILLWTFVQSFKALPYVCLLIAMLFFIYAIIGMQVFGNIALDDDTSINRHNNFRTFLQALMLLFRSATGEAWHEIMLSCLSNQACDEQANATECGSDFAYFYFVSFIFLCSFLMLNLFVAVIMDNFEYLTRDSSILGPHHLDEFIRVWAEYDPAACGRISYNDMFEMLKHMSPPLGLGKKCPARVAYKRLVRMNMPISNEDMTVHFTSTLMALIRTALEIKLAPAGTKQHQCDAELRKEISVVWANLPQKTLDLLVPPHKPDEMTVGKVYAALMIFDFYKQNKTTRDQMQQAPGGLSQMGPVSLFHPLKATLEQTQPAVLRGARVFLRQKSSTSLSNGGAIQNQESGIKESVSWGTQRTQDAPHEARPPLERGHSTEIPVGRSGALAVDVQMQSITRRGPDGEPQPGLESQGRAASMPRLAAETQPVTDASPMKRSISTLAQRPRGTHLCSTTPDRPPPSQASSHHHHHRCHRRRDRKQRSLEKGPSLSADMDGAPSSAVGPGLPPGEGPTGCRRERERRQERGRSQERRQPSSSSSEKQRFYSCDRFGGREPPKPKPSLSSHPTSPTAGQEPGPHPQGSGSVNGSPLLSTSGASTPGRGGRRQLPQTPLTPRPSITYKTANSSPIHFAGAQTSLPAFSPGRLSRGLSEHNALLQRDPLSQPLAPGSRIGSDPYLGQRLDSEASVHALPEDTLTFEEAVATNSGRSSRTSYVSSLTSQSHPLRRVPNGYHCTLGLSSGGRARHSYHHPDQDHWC
T1 sequence (P54289 25-1103, further chain): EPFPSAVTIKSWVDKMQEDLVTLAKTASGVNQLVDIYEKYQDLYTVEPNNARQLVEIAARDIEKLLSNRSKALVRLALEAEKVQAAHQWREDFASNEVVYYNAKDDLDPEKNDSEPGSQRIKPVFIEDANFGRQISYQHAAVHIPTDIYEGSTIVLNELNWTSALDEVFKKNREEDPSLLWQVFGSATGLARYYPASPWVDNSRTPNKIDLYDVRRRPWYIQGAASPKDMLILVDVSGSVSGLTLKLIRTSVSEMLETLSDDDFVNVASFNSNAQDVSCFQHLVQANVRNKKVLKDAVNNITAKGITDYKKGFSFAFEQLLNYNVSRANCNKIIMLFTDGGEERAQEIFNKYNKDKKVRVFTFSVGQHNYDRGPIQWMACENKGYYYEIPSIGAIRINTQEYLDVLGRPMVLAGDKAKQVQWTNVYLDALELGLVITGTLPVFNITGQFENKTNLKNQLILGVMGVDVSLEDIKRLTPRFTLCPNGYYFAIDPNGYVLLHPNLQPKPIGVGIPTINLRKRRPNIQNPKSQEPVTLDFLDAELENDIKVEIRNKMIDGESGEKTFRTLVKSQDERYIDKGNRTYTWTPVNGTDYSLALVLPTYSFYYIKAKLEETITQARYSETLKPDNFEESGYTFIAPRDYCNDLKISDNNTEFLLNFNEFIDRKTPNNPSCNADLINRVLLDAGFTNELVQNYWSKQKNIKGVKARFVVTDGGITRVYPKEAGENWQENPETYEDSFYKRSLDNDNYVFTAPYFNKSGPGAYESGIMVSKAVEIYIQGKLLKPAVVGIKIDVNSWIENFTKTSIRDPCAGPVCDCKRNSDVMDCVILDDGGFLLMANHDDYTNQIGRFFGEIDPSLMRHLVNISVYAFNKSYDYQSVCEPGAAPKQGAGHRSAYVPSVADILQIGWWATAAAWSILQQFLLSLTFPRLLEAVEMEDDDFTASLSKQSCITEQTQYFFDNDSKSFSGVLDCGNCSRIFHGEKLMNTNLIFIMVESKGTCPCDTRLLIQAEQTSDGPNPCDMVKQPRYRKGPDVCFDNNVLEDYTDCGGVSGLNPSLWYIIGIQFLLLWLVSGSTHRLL
T1 sequence (P54284 whole entry, further chain): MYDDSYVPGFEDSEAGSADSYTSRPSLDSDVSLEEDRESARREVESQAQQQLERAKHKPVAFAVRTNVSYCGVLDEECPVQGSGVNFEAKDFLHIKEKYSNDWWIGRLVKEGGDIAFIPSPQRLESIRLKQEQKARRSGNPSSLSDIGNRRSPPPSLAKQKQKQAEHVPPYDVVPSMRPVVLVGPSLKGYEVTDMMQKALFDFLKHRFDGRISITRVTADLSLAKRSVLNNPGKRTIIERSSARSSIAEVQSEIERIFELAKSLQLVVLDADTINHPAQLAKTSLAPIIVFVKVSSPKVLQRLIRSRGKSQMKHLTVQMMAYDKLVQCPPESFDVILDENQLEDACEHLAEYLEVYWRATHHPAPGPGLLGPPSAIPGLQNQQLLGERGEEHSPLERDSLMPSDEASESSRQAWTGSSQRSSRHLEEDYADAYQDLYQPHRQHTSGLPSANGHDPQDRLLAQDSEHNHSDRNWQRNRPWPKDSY

SMILES | inhibition at 3 µM
Cc1c(-c2ccc(F)cc2)c(C(=O)N2CC(O)C2)n(Cc2ccccc2)c1C(F)(F)F [SC-223, [1-Benzyl-3-(4-fluorophenyl)-4-methyl-5-(trifluoromethyl)-1H-pyrrol-2-yl]-(3-hydroxy-azetidin-1-yl)-methanone] | 75 to 95%
Cc1c(-c2ccc(F)cc2)c(C(=O)N(C)CC(C)(C)C)n(Cc2ccccc2)c1C(F)(F)F [SC-224, 1-Benzyl-N-(2,2-dimethyl-propyl)-3-(4-fluorophenyl)-N,4-dimethyl-5-(trifluoromethyl)-1H-pyrrole-2-carboxylic acid amide] | 75 to 95%
Cc1c(-c2ccc(F)cc2)c(C(=O)N2CCOC(C)(C)C2)n(Cc2ccccc2)c1C(F)(F)F [SC-225, [1-Benzyl-3-(4-fluorophenyl)-4-methyl-5-(trifluoromethyl)-1H-pyrrol-2-yl]-(2,2-dimethyl-morpholin-4-yl)-methanone] | > 95%
Cc1c(-c2ccc(F)cc2)c(C(=O)N(C)CC2CCOC2)n(Cc2ccccc2)c1C(F)(F)F (centres unmarked) [SC-226, 1-Benzyl-3-(4-fluorophenyl)-N,4-dimethyl-N-(tetrahydro-furan-3-yl-methyl)-5-(trifluoromethyl)-1H-pyrrole-2-carboxylic acid amide] | > 95%
Cc1c(-c2ccc(C(F)(F)F)cc2)c(C(=O)N(C)CC(C)(C)CO)n(Cc2ccccc2)c1C(F)(F)F [SC-227, 1-Benzyl-N-(3-hydroxy-2,2-dimethyl-propyl)-N,4-dimethyl-5-(trifluoromethyl)-3-[4-(trifluoromethyl)-phenyl]-1H-pyrrole-2-carboxylic acid amide] | 75 to 95%
Cc1c(-c2ccc(C(F)(F)F)cc2)c(C(=O)N(C)CCS(C)(=O)=O)n(Cc2ccccc2)c1C(F)(F)F [SC-228, 1-Benzyl-N,4-dimethyl-N-(2-methylsulfonyl-ethyl)-5-(trifluoromethyl)-3-[4-(trifluoromethyl)-phenyl]-1H-pyrrole-2-carboxylic acid amide] | 75 to 95%
Cc1c(-c2ccc(C(F)(F)F)cc2)c(C(=O)N(C)C2CCOCC2)n(Cc2ccccc2)c1C(F)(F)F [SC-229, 1-Benzyl-N,4-dimethyl-N-tetrahydro-pyran-4-yl-5-(trifluoromethyl)-3-[4-(trifluoromethyl)-phenyl]-1H-pyrrole-2-carboxylic acid amide] | 75 to 95%
Cc1c(-c2ccc(C(F)(F)F)cc2)c(C(=O)N(C)C2CC2)n(Cc2ccccc2)c1C(F)(F)F [SC-230, 1-Benzyl-N-cyclopropyl-N,4-dimethyl-5-(trifluoromethyl)-3-[4-(trifluoromethyl)-phenyl]-1H-pyrrole-2-carboxylic acid amide] | 40 to 75%
Cc1c(-c2ccc(C(F)(F)F)cc2)c(C(=O)N(C)C(C)(C)CO)n(Cc2ccccc2)c1C(F)(F)F [SC-231, 1-Benzyl-N-(2-hydroxy-1,1-dimethyl-ethyl)-N,4-dimethyl-5-(trifluoromethyl)-3-[4-(trifluoromethyl)-phenyl]-1H-pyrrole-2-carboxylic acid amide] | > 95%
Cc1c(-c2ccc(C(F)(F)F)cc2)c(C(=O)N2CC(O)C2)n(Cc2ccccc2)c1C(F)(F)F [SC-232, [1-Benzyl-4-methyl-5-(trifluoromethyl)-3-[4-(trifluoromethyl)-phenyl]-1H-pyrrol-2-yl]-(3-hydroxy-azetidin-1-yl)-methanone] | 40 to 75%
Cc1c(-c2ccc(C(F)(F)F)cc2)c(C(=O)N(C)CC(C)(C)C)n(Cc2ccccc2)c1C(F)(F)F [SC-233, 1-Benzyl-N-(2,2-dimethyl-propyl)-N,4-dimethyl-5-(trifluoromethyl)-3-[4-(trifluoromethyl)-phenyl]-1H-pyrrole-2-carboxylic acid amide] | 30 to 40%
Cc1c(-c2ccc(C(F)(F)F)cc2)c(C(=O)N2CCOC(C)(C)C2)n(Cc2ccccc2)c1C(F)(F)F [SC-234, [1-Benzyl-4-methyl-5-(trifluoromethyl)-3-[4-(trifluoromethyl)-phenyl]-1H-pyrrol-2-yl]-(2,2-dimethyl-morpholin-4-yl)-methanone] | 75 to 95%
Cc1c(-c2ccc(OC(F)(F)F)cc2)c(C(=O)N(C)CC(C)(C)CO)n(Cc2ccccc2)c1C(F)(F)F [SC-235, 1-Benzyl-N-(3-hydroxy-2,2-dimethyl-propyl)-N,4-dimethyl-5-(trifluoromethyl)-3-[4-(trifluoromethyloxy)-phenyl]-1H-pyrrole-2-carboxylic acid amide] | 75 to 95%
Cc1c(-c2ccc(OC(F)(F)F)cc2)c(C(=O)N(C)CCS(C)(=O)=O)n(Cc2ccccc2)c1C(F)(F)F [SC-236, 1-Benzyl-N,4-dimethyl-N-(2-methylsulfonyl-ethyl)-5-(trifluoromethyl)-3-[4-(trifluoromethyloxy)-phenyl]-1H-pyrrole-2-carboxylic acid amide] | > 95%
Cc1c(-c2ccc(OC(F)(F)F)cc2)c(C(=O)N(C)C2CCOCC2)n(Cc2ccccc2)c1C(F)(F)F [SC-237, 1-Benzyl-N,4-dimethyl-N-tetrahydro-pyran-4-yl-5-(trifluoromethyl)-3-[4-(trifluoromethyloxy)-phenyl]-1H-pyrrole-2-carboxylic acid amide] | 75 to 95%
Cc1c(-c2ccc(OC(F)(F)F)cc2)c(C(=O)N(C)C2CC2)n(Cc2ccccc2)c1C(F)(F)F [SC-238, 1-Benzyl-N-cyclopropyl-N,4-dimethyl-5-(trifluoromethyl)-3-[4-(trifluoromethyloxy)-phenyl]-1H-pyrrole-2-carboxylic acid amide] | 40 to 75%
Cc1c(-c2ccc(OC(F)(F)F)cc2)c(C(=O)N2CC(O)C2)n(Cc2ccccc2)c1C(F)(F)F [SC-239, [1-Benzyl-4-methyl-5-(trifluoromethyl)-3-[4-(trifluoromethyloxy)-phenyl]-1H-pyrrol-2-yl]-(3-hydroxy-azetidin-1-yl)-methanone] | 75 to 95%
Cc1c(-c2ccc(OC(F)(F)F)cc2)c(C(=O)N(C)CC(C)(C)C)n(Cc2ccccc2)c1C(F)(F)F [SC-240, 1-Benzyl-N-(2,2-dimethyl-propyl)-N,4-dimethyl-5-(trifluoromethyl)-3-[4-(trifluoromethyloxy)-phenyl]-1H-pyrrole-2-carboxylic acid amide] | 30 to 40%
Cc1c(-c2ccc(OC(F)(F)F)cc2)c(C(=O)N(C)C(C)(C)CO)n(Cc2ccccc2)c1C(F)(F)F [SC-241, 1-Benzyl-N-(2-hydroxy-1,1-dimethyl-ethyl)-N,4-dimethyl-5-(trifluoromethyl)-3-[4-(trifluoromethyloxy)-phenyl]-1H-pyrrole-2-carboxylic acid amide] | > 95%
Cc1c(-c2ccc(OC(F)(F)F)cc2)c(C(=O)N2CCOC(C)(C)C2)n(Cc2ccccc2)c1C(F)(F)F [SC-242, [1-Benzyl-4-methyl-5-(trifluoromethyl)-3-[4-(trifluoromethyloxy)-phenyl]-1H-pyrrol-2-yl]-(2,2-dimethyl-morpholin-4-yl)-methanone] | 75 to 95%
Cc1c(-c2ccc(Cl)c(F)c2)c(C(=O)N(C)CC(C)(C)CO)n(Cc2ccccc2)c1C(F)(F)F [SC-243, 1-Benzyl-3-(4-chloro-3-fluoro-phenyl)-N-(3-hydroxy-2,2-dimethyl-propyl)-N,4-dimethyl-5-(trifluoromethyl)-1H-pyrrole-2-carboxylic acid amide] | > 95%
Cc1c(-c2ccc(Cl)c(F)c2)c(C(=O)N(C)CCS(C)(=O)=O)n(Cc2ccccc2)c1C(F)(F)F [SC-244, 1-Benzyl-3-(4-chloro-3-fluoro-phenyl)-N,4-dimethyl-N-(2-methylsulfonyl-ethyl)-5-(trifluoromethyl)-1H-pyrrole-2-carboxylic acid amide] | 75 to 95%
Cc1c(-c2ccc(Cl)c(F)c2)c(C(=O)N(C)C2CCOCC2)n(Cc2ccccc2)c1C(F)(F)F [SC-245, 1-Benzyl-3-(4-chloro-3-fluoro-phenyl)-N,4-dimethyl-N-tetrahydro-pyran-4-yl-5-(trifluoromethyl)-1H-pyrrole-2-carboxylic acid amide] | > 95%
Cc1c(-c2ccc(Cl)c(F)c2)c(C(=O)N(C)C2CC2)n(Cc2ccccc2)c1C(F)(F)F [SC-246, 1-Benzyl-3-(4-chloro-3-fluoro-phenyl)-N-cyclopropyl-N,4-dimethyl-5-(trifluoromethyl)-1H-pyrrole-2-carboxylic acid amide] | 75 to 95%
Cc1c(-c2ccc(Cl)c(F)c2)c(C(=O)N2CC(O)C2)n(Cc2ccccc2)c1C(F)(F)F [SC-247, [1-Benzyl-3-(4-chloro-3-fluoro-phenyl)-4-methyl-5-(trifluoromethyl)-1H-pyrrol-2-yl]-(3-hydroxy-azetidin-1-yl)-methanone] | 40 to 75%
Cc1c(-c2ccc(Cl)c(F)c2)c(C(=O)N(C)C(C)(C)CO)n(Cc2ccccc2)c1C(F)(F)F [SC-248, 1-Benzyl-3-(4-chloro-3-fluoro-phenyl)-N-(2-hydroxy-1,1-dimethyl-ethyl)-N,4-dimethyl-5-(trifluoromethyl)-1H-pyrrole-2-carboxylic acid amide] | 75 to 95%
Cc1c(-c2ccc(Cl)c(F)c2)c(C(=O)N2CCOC(C)(C)C2)n(Cc2ccccc2)c1C(F)(F)F [SC-249, [1-Benzyl-3-(4-chloro-3-fluoro-phenyl)-4-methyl-5-(trifluoromethyl)-1H-pyrrol-2-yl]-(2,2-dimethyl-morpholin-4-yl)-methanone] | 75 to 95%
Cc1c(-c2ccc(Cl)c(F)c2)c(C(=O)N(C)CC(C)(C)C)n(Cc2ccccc2)c1C(F)(F)F [SC-250, 1-Benzyl-3-(4-chloro-3-fluoro-phenyl)-N-(2,2-dimethyl-propyl)-N,4-dimethyl-5-(trifluoromethyl)-1H-pyrrole-2-carboxylic acid amide] | 40 to 75%
Cc1c(-c2ccc(F)c(Cl)c2)c(C(=O)N(C)CC(C)(C)CO)n(Cc2ccccc2)c1C(F)(F)F [SC-251, 1-Benzyl-3-(3-chloro-4-fluoro-phenyl)-N-(3-hydroxy-2,2-dimethyl-propyl)-N,4-dimethyl-5-(trifluoromethyl)-1H-pyrrole-2-carboxylic acid amide] | 75 to 95%
